{"source": "ChEMBL document CHEMBL4406882", "about": "“The plant-derived chalcone Xanthoangelol targets the membrane of Gram-positive bacteria” (Bioorg Med Chem, 2019)", "key": {"[1]": {"assay": "Cytotoxicity against human CLS54 cells assessed as reduction in cell viability incubated for 48 hrs by resazurin reagent based assay"}, "Acinetobacter baumannii [2]": {"test_system": "Acinetobacter baumannii", "assay": "Antibacterial activity against multidrug-resistant Acinetobacter baumannii ATCC BAA-1605 by broth micro dilution method", "format": "functional"}, "Enterococcus faecalis [3]": {"test_system": "Enterococcus faecalis", "assay": "Antibacterial activity against Enterococcus faecalis ATCC 29212 by broth micro dilution method", "format": "functional"}, "Bacillus subtilis [4]": {"test_system": "Bacillus subtilis", "assay": "Induction of YvlB protein expression in Bacillus subtilis 168 at 2.3 uM incubated for 15 mins by 35S-methionine pulse labeling based 2D-PAGE analysis", "format": "functional, organism-based"}, "Staphylococcus aureus [5]": {"test_system": "Staphylococcus aureus", "assay": "Induction of membrane integrity impairment in methicillin resistant Staphylococcus aureus Mu50 assessed as increase in release of ATP at 1 to 16 times MIC incubated for 1 hr by BacTiter-Glo Assay", "format": "functional, organism-based"}, "Bacillus subtilis [6]": {"test_system": "Bacillus subtilis", "assay": "Induction of MenB protein expression in Bacillus subtilis 168 at 2.3 uM incubated for 15 mins by 35S-methionine pulse labeling based 2D-PAGE analysis", "format": "functional, organism-based"}, "Bacillus subtilis [7]": {"test_system": "Bacillus subtilis", "assay": "Induction of DnaK.2 protein expression in Bacillus subtilis 168 at 2.3 uM incubated for 15 mins by 35S-methionine pulse labeling based 2D-PAGE analysis", "format": "functional, organism-based"}, "Bacillus subtilis [8]": {"test_system": "Bacillus subtilis", "assay": "Induction of TrxA protein expression in Bacillus subtilis 168 at 2.3 uM incubated for 15 mins by 35S-methionine pulse labeling based 2D-PAGE analysis", "format": "functional, organism-based"}, "Staphylococcus aureus [9]": {"test_system": "Staphylococcus aureus", "assay": "Antibacterial activity against mid-exponential growth phase of methicillin-resistant Staphylococcus aureus ATCC 700699 assessed as increase in cell lysis at 12.5 to 25 uM", "format": "functional, organism-based"}, "Bacillus subtilis [10]": {"test_system": "Bacillus subtilis", "assay": "Induction of YqiG protein expression in Bacillus subtilis 168 at 2.3 uM incubated for 15 mins by 35S-methionine pulse labeling based 2D-PAGE analysis", "format": "functional, organism-based"}, "Erythrocyte": {"test_system": "Erythrocyte", "assay": "Hemolytic activity against human erythrocytes at =>100 uM measured up to 24 hrs", "format": "ADME, cell-based"}, "Enterococcus faecalis [11]": {"test_system": "Enterococcus faecalis", "assay": "Antibacterial activity against vancomycin-resistant Enterococcus faecalis ATCC 700221 by broth micro dilution method", "format": "functional"}, "Bacillus subtilis [12]": {"test_system": "Bacillus subtilis", "assay": "Induction of Tpx protein expression in Bacillus subtilis 168 at 2.3 uM incubated for 15 mins by 35S-methionine pulse labeling based 2D-PAGE analysis", "format": "functional, organism-based"}, "Bacillus subtilis [13]": {"test_system": "Bacillus subtilis", "assay": "Induction of ArgB protein expression in Bacillus subtilis 168 at 2.3 uM incubated for 15 mins by 35S-methionine pulse labeling based 2D-PAGE analysis", "format": "functional, organism-based"}, "Bacillus subtilis [14]": {"test_system": "Bacillus subtilis", "assay": "Induction of YqjE protein expression in Bacillus subtilis 168 at 2.3 uM incubated for 15 mins by 35S-methionine pulse labeling based 2D-PAGE analysis", "format": "functional, organism-based"}, "Bacillus subtilis [15]": {"test_system": "Bacillus subtilis", "assay": "Induction of YuaE protein expression in Bacillus subtilis 168 at 2.3 uM incubated for 15 mins by 35S-methionine pulse labeling based 2D-PAGE analysis", "format": "functional, organism-based"}, "Bacillus subtilis [16]": {"test_system": "Bacillus subtilis", "assay": "Induction of AhpF protein expression in Bacillus subtilis 168 at 2.3 uM incubated for 15 mins by 35S-methionine pulse labeling based 2D-PAGE analysis", "format": "functional, organism-based"}, "Bacillus subtilis [17]": {"test_system": "Bacillus subtilis", "assay": "Induction of PpaC protein expression in Bacillus subtilis 168 at 2.3 uM incubated for 15 mins by 35S-methionine pulse labeling based 2D-PAGE analysis", "format": "functional, organism-based"}, "[18]": {"assay": "(§1) Cytotoxicity against human MRC5 cells assessed as reduction in cell viability incubated for 48 hrs by resazurin reagent based assay", "conditions": "human, MRC5 cells"}, "MRC5": {"test_system": "MRC5", "assay": "as §1", "conditions": "Homo sapiens, MRC5, 48 h"}, "Staphylococcus aureus [19]": {"test_system": "Staphylococcus aureus", "assay": "Induction of membrane integrity impairment in methicillin resistant Staphylococcus aureus Mu50 harboring GFP reporter plasmid assessed as increase in release of GFP at 1 to 16 times MIC incubated for 3 to 6 hrs by […]", "format": "functional, organism-based"}, "Bacillus subtilis [20]": {"test_system": "Bacillus subtilis", "assay": "Induction of YceH protein expression in Bacillus subtilis 168 at 2.3 uM incubated for 15 mins by 35S-methionine pulse labeling based 2D-PAGE analysis", "format": "functional, organism-based"}, "Bacillus subtilis [21]": {"test_system": "Bacillus subtilis", "assay": "Induction of SufD protein expression in Bacillus subtilis 168 at 2.3 uM incubated for 15 mins by 35S-methionine pulse labeling based 2D-PAGE analysis", "format": "functional, organism-based"}, "Pseudomonas aeruginosa": {"test_system": "Pseudomonas aeruginosa", "assay": "Antibacterial activity against Pseudomonas aeruginosa ATCC 27853 by broth micro dilution method", "format": "functional"}, "Bacillus subtilis [22]": {"test_system": "Bacillus subtilis", "assay": "Induction of HisI protein expression in Bacillus subtilis 168 at 2.3 uM incubated for 15 mins by 35S-methionine pulse labeling based 2D-PAGE analysis", "format": "functional, organism-based"}, "[23]": {"assay": "Selectivity index, ratio of IC50 for human HEK293 cells to MIC90 for methicillin-resistant Staphylococcus aureus ATCC 700699", "format": "toxicity", "conditions": "read-out: Selectivity Index"}, "Acinetobacter baumannii [24]": {"test_system": "Acinetobacter baumannii", "assay": "Antibacterial activity against Acinetobacter baumannii ATCC BAA-747 by broth micro dilution method", "format": "functional"}, "Bacillus subtilis [25]": {"test_system": "Bacillus subtilis", "assay": "Induction of NfrA protein expression in Bacillus subtilis 168 at 2.3 uM incubated for 15 mins by 35S-methionine pulse labeling based 2D-PAGE analysis", "format": "functional, organism-based"}, "Bacillus subtilis [26]": {"test_system": "Bacillus subtilis", "assay": "Induction of BdhA protein expression in Bacillus subtilis 168 at 2.3 uM incubated for 15 mins by 35S-methionine pulse labeling based 2D-PAGE analysis", "format": "functional, organism-based"}, "[27]": {"assay": "Selectivity index, ratio of IC50 for human HepG2 cells to MIC90 for methicillin-resistant Staphylococcus aureus ATCC 700699", "format": "toxicity", "conditions": "read-out: Selectivity Index"}, "Staphylococcus aureus [28]": {"test_system": "Staphylococcus aureus", "assay": "Induction of membrane integrity impairment in methicillin-resistant Staphylococcus aureus ATCC 700699 at 12.5 to 25 uM measured for 3 hrs by PI staining based fluorescence assay", "format": "functional, organism-based"}, "Bacillus subtilis [29]": {"test_system": "Bacillus subtilis", "assay": "Induction of PepF protein expression in Bacillus subtilis 168 at 2.3 uM incubated for 15 mins by 35S-methionine pulse labeling based 2D-PAGE analysis", "format": "functional, organism-based"}, "Bacillus subtilis [30]": {"test_system": "Bacillus subtilis", "assay": "Induction of PdhA protein expression in Bacillus subtilis 168 at 2.3 uM incubated for 15 mins by 35S-methionine pulse labeling based 2D-PAGE analysis", "format": "functional, organism-based"}, "Bacillus subtilis [31]": {"test_system": "Bacillus subtilis", "assay": "Induction of CysK protein expression in Bacillus subtilis 168 at 2.3 uM incubated for 15 mins by 35S-methionine pulse labeling based 2D-PAGE analysis", "format": "functional, organism-based"}, "Staphylococcus aureus [32]": {"test_system": "Staphylococcus aureus", "assay": "Bactericidal activity against methicillin-resistant Staphylococcus aureus ATCC 700699 assessed as reduction in bacterial CFU at 4 times MIC measured for 30 mins", "format": "functional"}, "Bacillus subtilis [33]": {"test_system": "Bacillus subtilis", "assay": "Induction of HisG protein expression in Bacillus subtilis 168 at 2.3 uM incubated for 15 mins by 35S-methionine pulse labeling based 2D-PAGE analysis", "format": "functional, organism-based"}, "Bacillus subtilis [34]": {"test_system": "Bacillus subtilis", "assay": "Induction of YdjE protein expression in Bacillus subtilis 168 at 2.3 uM incubated for 15 mins by 35S-methionine pulse labeling based 2D-PAGE analysis", "format": "functional, organism-based"}, "Bacillus subtilis [35]": {"test_system": "Bacillus subtilis", "assay": "Induction of ClpC protein expression in Bacillus subtilis 168 at 2.3 uM incubated for 15 mins by 35S-methionine pulse labeling based 2D-PAGE analysis", "format": "functional, organism-based"}}, "note": "Active and inactive are the calls of the source. No cut-off for these calls is given here.", "data": [{"smiles": "CC(C)=CCC/C(C)=C/Cc1c(O)ccc(C(=O)/C=C/c2ccc(O)cc2)c1O", "note": "[XANTHOANGELOL]", "values": [{"measurement": "IC50", "setting": "[1]; Homo sapiens, 48 h", "value": 58.8, "unit": "µM"}, {"measurement": "IC90 at 48 h", "setting": "[1]; human, CLS54 cells", "value": 85.8, "unit": "µM"}, {"measurement": "MIC", "setting": "Acinetobacter baumannii [2]", "value": "> 100", "unit": "µM"}, {"measurement": "MIC", "setting": "Enterococcus faecalis [3]", "value": 12.5, "unit": "µM"}, {"measurement": "Activity", "setting": "Bacillus subtilis [4]", "value": "Active"}, {"measurement": "Activity", "setting": "Staphylococcus aureus [5]", "value": "Active"}, {"measurement": "Activity", "setting": "Bacillus subtilis [6]", "value": "Active"}, {"measurement": "Activity", "setting": "Bacillus subtilis [7]", "value": "Active"}, {"measurement": "Activity", "setting": "Bacillus subtilis [8]", "value": "Active"}, {"measurement": "Activity", "setting": "Staphylococcus aureus [9]", "value": "Active"}, {"measurement": "Activity", "setting": "Bacillus subtilis [10]", "value": "Active"}, {"measurement": "Activity", "setting": "Erythrocyte", "value": "Toxic"}, {"measurement": "MIC", "setting": "Enterococcus faecalis [11]", "value": 3.12, "unit": "µM"}, {"measurement": "Activity", "setting": "Bacillus subtilis [12]", "value": "Active"}, {"measurement": "Activity", "setting": "Bacillus subtilis [13]", "value": "Active"}, {"measurement": "Activity", "setting": "Bacillus subtilis [14]", "value": "Active"}, {"measurement": "Activity", "setting": "Bacillus subtilis [15]", "value": "Active"}, {"measurement": "Activity", "setting": "Bacillus subtilis [16]", "value": "Active"}, {"measurement": "Activity", "setting": "Bacillus subtilis [17]", "value": "Active"}, {"measurement": "IC90 at 48 h", "setting": "[18]", "value": 27.6, "unit": "µM"}, {"measurement": "IC50", "setting": "MRC5", "value": 21.7, "unit": "µM"}, {"measurement": "Activity", "setting": "Staphylococcus aureus [19]", "value": "Active"}, {"measurement": "Activity", "setting": "Bacillus subtilis [20]", "value": "Active"}, {"measurement": "Activity", "setting": "Bacillus subtilis [21]", "value": "Active"}, {"measurement": "MIC", "setting": "Pseudomonas aeruginosa", "value": "> 100", "unit": "µM"}, {"measurement": "Activity", "setting": "Bacillus subtilis [22]", "value": "Active"}, {"measurement": "selectivity ratio", "setting": "[23]", "value": 16.2}, {"measurement": "MIC", "setting": "Acinetobacter baumannii [24]", "value": "> 100", "unit": "µM"}, {"measurement": "Activity", "setting": "Bacillus subtilis [25]", "value": "Active"}, {"measurement": "Activity", "setting": "Bacillus subtilis [26]", "value": "Active"}, {"measurement": "selectivity ratio", "setting": "[27]", "value": 10.3}, {"measurement": "Activity", "setting": "Staphylococcus aureus [28]", "value": "Active"}, {"measurement": "Activity", "setting": "Bacillus subtilis [29]", "value": "Active"}, {"measurement": "Activity", "setting": "Bacillus subtilis [30]", "value": "Active"}, {"measurement": "Activity", "setting": "Bacillus subtilis [31]", "value": "Active"}, {"measurement": "Activity", "setting": "Staphylococcus aureus [32]", "value": "<20", "unit": "CFU/ml"}, {"measurement": "Activity", "setting": "Bacillus subtilis [33]", "value": "Active"}, {"measurement": "Activity", "setting": "Bacillus subtilis [34]", "value": "Active"}, {"measurement": "Activity", "setting": "Bacillus subtilis [35]", "value": "Active"}]}]}
